Structures are written as SMILES.

This test deals with T1, EGFR L858R/T790M/C797S (Homo sapiens, UniProt P00533, C797S/L858R/T790M).
T1 construct: expressed in transfected cells; host or cells: BaF3-LTC
T1 sequence (P00533 25-1210 T790M/C797S/L858R): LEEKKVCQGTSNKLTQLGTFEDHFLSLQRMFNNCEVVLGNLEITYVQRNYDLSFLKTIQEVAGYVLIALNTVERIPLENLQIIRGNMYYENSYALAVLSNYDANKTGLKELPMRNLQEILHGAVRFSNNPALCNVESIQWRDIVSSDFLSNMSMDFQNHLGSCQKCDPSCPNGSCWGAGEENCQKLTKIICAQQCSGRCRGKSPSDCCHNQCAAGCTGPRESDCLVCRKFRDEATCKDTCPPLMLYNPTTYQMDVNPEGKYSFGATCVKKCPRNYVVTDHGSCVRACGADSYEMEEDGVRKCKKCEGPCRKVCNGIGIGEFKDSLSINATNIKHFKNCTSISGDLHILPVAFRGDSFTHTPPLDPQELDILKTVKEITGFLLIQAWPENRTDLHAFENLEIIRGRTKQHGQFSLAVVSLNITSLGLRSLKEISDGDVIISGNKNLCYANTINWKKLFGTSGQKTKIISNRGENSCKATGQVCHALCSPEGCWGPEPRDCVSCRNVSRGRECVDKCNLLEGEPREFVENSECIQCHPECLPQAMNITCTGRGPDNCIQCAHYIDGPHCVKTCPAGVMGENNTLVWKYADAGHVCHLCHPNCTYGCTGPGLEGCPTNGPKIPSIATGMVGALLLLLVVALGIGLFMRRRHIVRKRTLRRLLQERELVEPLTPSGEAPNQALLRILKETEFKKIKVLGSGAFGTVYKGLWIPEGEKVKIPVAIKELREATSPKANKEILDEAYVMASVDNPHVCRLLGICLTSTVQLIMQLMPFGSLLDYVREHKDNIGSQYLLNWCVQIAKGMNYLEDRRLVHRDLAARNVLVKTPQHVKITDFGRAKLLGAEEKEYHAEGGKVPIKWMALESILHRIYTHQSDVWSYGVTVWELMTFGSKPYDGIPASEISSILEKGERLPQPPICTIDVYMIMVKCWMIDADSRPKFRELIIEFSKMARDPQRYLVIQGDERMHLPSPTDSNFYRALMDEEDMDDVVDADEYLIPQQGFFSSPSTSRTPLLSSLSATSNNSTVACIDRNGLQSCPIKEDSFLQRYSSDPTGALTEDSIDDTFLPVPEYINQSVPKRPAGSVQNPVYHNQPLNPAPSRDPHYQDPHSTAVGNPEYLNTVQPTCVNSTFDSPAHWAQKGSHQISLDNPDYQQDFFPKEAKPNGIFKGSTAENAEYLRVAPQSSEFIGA
The test can be described thus: EGFR degradation HTRF assay in BaF3-LTC cells. The class given is cell-based. Particulars: BaF3-LTC (L858R/T790M/C797S), maximum percentage of inhibition (degradation); read-out: BaF3-LTC Dmax (%). How it is done:
BaF3-LTC(L858R/T790M/C797S) cells and BaF3 LC(L858R/C797S) cells are treated with compounds diluted in 0.2% DMSO cell culture medium and incubate for 16 h, 37° C., 5% CO2. the final concentration of compounds in all assay is start with 10 uM, 5-fold dilution, total 8 doses were included.
After 16 h treatment, add HTRF lysis buffer to each well; seal the plate and incubate 1 hour at room temperature on a plate shaker; Once the cells are lysed, 16 μL of cell lysate are transferred to a PE 384-well HTRF detection plate; 4 μL of pre-mixed HTRF antibodies are added to each well; Cover the plate with a plate sealer, spin 1000 rpm for 1 min, Incubate overnight at room temperature; Read on BMG PheraStar with HTRF protocol (337 nm-665 nm-620 nm).
The inhibition (degradation) percentage of the compound was calculated by the following equation: Inhibition percentage of Compound=100−100×(Signal−low control)/(High control−low control), wherein signal=each test compound group
High control=Cell group with added DMSO and without compound, indicating microplate readings without EGFR degradation;
Dmax is the maximum percentage of inhibition (degradation).
The IC50 (DC50) value of a compound can be obtained by fitting the following equation
Y=Bottom+(TOP−Bottom)/(1+((IC50/X)^hillslope))
Wherein, X and Y are known values, and IC50, Hillslope, Top and Bottom are the parameters obtained by fitting with software. Y is the inhibition percentage (calculated from the equation), X is the concentration of the compound; IC50 is the concentration of the compound when the 50% inhibition is reached. The smaller the IC50 value is, the stronger the inhibitory ability of the compound is. Vice versa, the higher the IC50 value is, the weaker the inhibitory ability of the compound is; Hillslope represents the slope of the fitted curve, generally around 1*; Bottom represents the minimum value of the curve obtained by data fitting, which is generally 0%±20%; Top represents the maximum value of the curve obtained by data fitting, which is generally 100%±20%. The experimental data were fitted by calculating and analyzing with Dotmatics data analysis software.
On the technique in general: TR-FRET usually uses a lanthanide donor and a delayed reading to cut background.
As usually defined, the Dmax is the greatest extent of degradation seen. Take `CCc1cc(Nc2ncc(Br)c(Nc3ccc4nc(C5CC5)ccc4c3P(C)(C)=O)n2)c(OC)cc1N1CCC(N2CCN(CCc3cc(F)c([C@H]4CCC(=O)NC4=O)c(F)c3)CC2)CC1` [Example 741, (R)-3-(4-(2-(4-(1-(4-((5-bromo-4-((2-cyclopropyl-5-(dimethylphosphoryl)quinolin-6-yl)amino)pyrimidin-2-yl)amino)-2-ethyl-5-methoxyphenyl)piperidin-4-yl)piperazin-1-yl)ethyl)-2,6-difluorophenyl)piperidine-2,6-dione]: the Dmax was determined as 96.6%.

For `CCOc1cc(N2CCC(N3CCN(CCc4c(F)ccc5c4n(C)c(=O)n5C4CCC(=O)NC4=O)CC3)CC2)c(CC)cc1Nc1ncc(Br)c(Nc2ccc3nc(CC)ncc3c2P(C)(C)=O)n1` (stereo not drawn) [Example 736, 3-(4-(2-(4-(1-(4-((5-bromo-4-((5-(dimethylphosphoryl)-2-ethylquinazolin-6-yl)amino)pyrimidin-2-yl)amino)-5-ethoxy-2-ethylphenyl)piperidin-4-yl)piperazin-1-yl)ethyl)-5-fluoro-3-methyl-2-oxo-2,3-dihydro-1H-benzo[d]imidazol-1-yl)piperidine-2,6-dione], the greatest degradation seen (Dmax) was determined as 97%.

With `CCc1cc(Nc2ncc(Br)c(Nc3ccc4nccnc4c3P(C)(C)=O)n2)c(OC)cc1N1CCC(N2CCN(CCc3cc(F)c([C@H]4CCC(=O)NC4=O)c(F)c3)CC2)CC1` [Example 751, (R)-3-(4-(2-(4-(1-(4-((5-bromo-4-((5-(dimethylphosphoryl)quinoxalin-6-yl)amino)pyrimidin-2-yl)amino)-2-ethyl-5-methoxyphenyl)piperidin-4-yl)piperazin-1-yl)ethyl)-2,6-difluorophenyl)piperidine-2,6-dione], the greatest degradation seen (Dmax) turned out to be 94.6%.

Regarding `CCc1ccc2c(P(C)(C)=O)c(Nc3nc(Nc4cc(CC)c(N5CCC(C6CCN(CCc7cc(F)c([C@H]8CCC(=O)NC8=O)c(F)c7)CC6)CC5)cc4OC)ncc3Br)ccc2n1` [Example 745, (R)-3-(4-(2-(1′-(4-((5-bromo-4-((5-(dimethylphosphoryl)-2-ethylquinolin-6-yl)amino)pyrimidin-2-yl)amino)-2-ethyl-5-methoxyphenyl)-[4,4′-bipiperidin]-1-yl)ethyl)-2,6-difluorophenyl)piperidine-2,6-dione], the Dmax turned out to be 88.7%.

Turning to `CCOc1cc(N2CCC(N3CCN(CCc4c(F)cc(F)c5c4oc(=O)n5C4CCC(=O)NC4=O)CC3)CC2)c(CC)cc1Nc1ncc(Br)c(Nc2ccc3nc(CC)ccc3c2P(C)(C)=O)n1` (stereo not drawn) [Example 731, 3-(7-(2-(4-(1-(4-((5-bromo-4-((5-(dimethylphosphoryl)-2-ethylquinolin-6-yl)amino)pyrimidin-2-yl)amino)-5-ethoxy-2-ethylphenyl)piperidin-4-yl)piperazin-1-yl)ethyl)-4,6-difluoro-2-oxobenzo[d]oxazol-3(2H)-yl)piperidine-2,6-dione], the Dmax amounted to 80.3%.

With `CCc1ccc2c(P(C)(C)=O)c(Nc3nc(Nc4cc(CC)c(N5CCC(N6CCN(CCc7cc(F)c([C@H]8CCC(=O)NC8=O)c(F)c7)CC6)CC5)cc4OC)ncc3Cl)ccc2n1` [Example 744, (R)-3-(4-(2-(4-(1-(4-((5-chloro-4-((5-(dimethylphosphoryl)-2-ethylquinolin-6-yl)amino)pyrimidin-2-yl)amino)-2-ethyl-5-methoxyphenyl)piperidin-4-yl)piperazin-1-yl)ethyl)-2,6-difluorophenyl)piperidine-2,6-dione], the maximal degradation (Dmax) turned out to be 92.3%.

Regarding `CCc1cc(Nc2ncc(Br)c(Nc3ccc4nc(C)ncc4c3P(C)(C)=O)n2)c(OC)cc1N1CCC(N2CCN(CCc3cc(F)c([C@H]4CCC(=O)NC4=O)c(F)c3)CC2)CC1` [Example 739, (R)-3-(4-(2-(4-(1-(4-((5-bromo-4-((5-(dimethylphosphoryl)-2-methylquinazolin-6-yl)amino)pyrimidin-2-yl)amino)-2-ethyl-5-methoxyphenyl)piperidin-4-yl)piperazin-1-yl)ethyl)-2,6-difluorophenyl)piperidine-2,6-dione], the Dmax turned out to be 95.7%.

Consider `CCOc1cc(N2CCC(N3CCN(CCc4cc(F)c([C@H]5CCC(=O)NC5=O)c(F)c4)CC3)CC2)c(CC)cc1Nc1ncc(Br)c(Nc2ccc3nc(C)c(F)cc3c2P(C)(C)=O)n1` [Example 728, (R)-3-(4-(2-(4-(1-(4-((5-bromo-4-((5-(dimethylphosphoryl)-3-fluoro-2-methylquinolin-6-yl)amino)pyrimidin-2-yl)amino)-5-ethoxy-2-ethylphenyl)piperidin-4-yl)piperazin-1-yl)ethyl)-2,6-difluorophenyl)piperidine-2,6-dione], for which the maximal degradation (Dmax) was 95.3%.

Consider `CCOc1cc(N2CCC(N3CCN(C(=O)[C@H]4CN(c5cc(F)c([C@H]6CCC(=O)NC6=O)c(F)c5)CC4(C)C)CC3)CC2)c(C)cc1Nc1ncc(Br)c(Nc2ccc3nc(C)ccc3c2P(C)(C)=O)n1` [Example 727, (R)-3-(4-((R)-4-(4-(1-(4-((5-bromo-4-((5-(dimethylphosphoryl)-2-methylquinolin-6-yl)amino)pyrimidin-2-yl)amino)-5-ethoxy-2-methylphenyl)piperidin-4-yl)piperazine-1-carbonyl)-3,3-dimethylpyrrolidin-1-yl)-2,6-difluorophenyl)piperidine-2,6-dione], for which the Dmax stood at 97.5%.

For the compound `CCOc1cc(N2CCC(N3CCN(CCc4cc(F)c(F)c5c4n(CC)c(=O)n5C4CCC(=O)NC4=O)CC3)CC2)c(CC)cc1Nc1ncc(Br)c(Nc2ccc3nc(CC)ccc3c2P(C)(C)=O)n1` (stereo not drawn) [Example 742, 3-(4-(2-(4-(1-(4-((5-bromo-4-((5-(dimethylphosphoryl)-2-ethylquinolin-6-yl)amino)pyrimidin-2-yl)amino)-5-ethoxy-2-ethylphenyl)piperidin-4-yl)piperazin-1-yl)ethyl)-3-ethyl-6,7-difluoro-2-oxo-2,3-dihydro-1H-benzo[d]imidazol-1-yl)piperidine-2,6-dione], the greatest degradation seen (Dmax) amounted to 78.1%.

Regarding `CCc1cc(Nc2ncc(Br)c(Nc3ccc4nc(C)ncc4c3P(C)(C)=O)n2)c(OC)cc1N1CCC(N2CCN(C(=O)[C@H]3CN(c4cc(F)c([C@H]5CCC(=O)NC5=O)c(F)c4)CC3(C)C)CC2)CC1` [Example 740, (R)-3-(4-((R)-4-(4-(1-(4-((5-bromo-4-((5-(dimethylphosphoryl)-2-methylquinazolin-6-yl)amino)pyrimidin-2-yl)amino)-2-ethyl-5-methoxyphenyl)piperidin-4-yl)piperazine-1-carbonyl)-3,3-dimethylpyrrolidin-1-yl)-2,6-difluorophenyl)piperidine-2,6-dione], the maximal degradation (Dmax) was found to be 97.2%.

For the compound `[2H]C1([2H])CC([2H])(c2c(F)cc(CCN3CCN(C4CCN(c5cc(OCC)c(Nc6ncc(Br)c(Nc7ccc8nc(C)ccc8c7P(C)(C)=O)n6)cc5CC)CC4)CC3)cc2F)C(=O)NC1=O` (stereo not drawn) [Example 570, 3-(4-(2-(4-(1-(4-((5-bromo-4-((5-(dimethylphosphoryl)-2-methylquinolin-6-yl)amino)pyrimidin-2-yl)amino)-5-ethoxy-2-ethylphenyl)piperidin-4-yl)piperazin-1-yl)ethyl)-2,6-difluorophenyl)piperidine-2,6-dione-3,5,5-d3], the Dmax worked out at 91.7%.

With `CCOc1cc(N2CCC(N3CCN(CCc4cc(F)c([C@H]5CCC(=O)NC5=O)c(F)c4)CC3)CC2)c(CC)cc1Nc1ncc(Br)c(Nc2ccc3nc(C)ncc3c2P(C)(C)=O)n1` [Example 738, (R)-3-(4-(2-(4-(1-(4-((5-bromo-4-((5-(dimethylphosphoryl)-2-methylquinazolin-6-yl)amino)pyrimidin-2-yl)amino)-5-ethoxy-2-ethylphenyl)piperidin-4-yl)piperazin-1-yl)ethyl)-2,6-difluorophenyl)piperidine-2,6-dione], the maximal degradation (Dmax) was 95.7%.

With `CCOc1cc(N2CCC(N3CCN(CCc4cccc5c4n(CC)c(=O)n5C4CCC(=O)NC4=O)CC3)CC2)c(CC)cc1Nc1ncc(Br)c(Nc2ccc3nc(CC)ncc3c2P(C)(C)=O)n1` (stereo not drawn) [Example 737, 3-(4-(2-(4-(1-(4-((5-bromo-4-((5-(dimethylphosphoryl)-2-ethylquinazolin-6-yl)amino)pyrimidin-2-yl)amino)-5-ethoxy-2-ethylphenyl)piperidin-4-yl)piperazin-1-yl)ethyl)-3-ethyl-2-oxo-2,3-dihydro-1H-benzo[d]imidazol-1-yl)piperidine-2,6-dione], the greatest degradation seen (Dmax) was 97.7%.

Turning to `CCOc1cc(N2CCC(N3CCN(C(=O)[C@H]4CN(c5cc(F)c([C@H]6CCC(=O)NC6=O)c(F)c5)CC4(C)C)CC3)CC2)c(CC)cc1Nc1ncc(Br)c(Nc2cc(F)c3nc(CC)ccc3c2P(C)(C)=O)n1` [Example 746, (R)-3-(4-((R)-4-(4-(1-(4-((5-bromo-4-((5-(dimethylphosphoryl)-2-ethyl-8-fluoroquinolin-6-yl)amino)pyrimidin-2-yl)amino)-5-ethoxy-2-ethylphenyl)piperidin-4-yl)piperazine-1-carbonyl)-3,3-dimethylpyrrolidin-1-yl)-2,6-difluorophenyl)piperidine-2,6-dione], the maximal degradation (Dmax) turned out to be 95.5%.
